Measured values published in US11117915B2, “Antibacterial aminoglycoside analogs” (Cipla USA, Inc., priority 2007, dated 2021).
In brackets after ≈: the same amount, converted by molar mass. Like-named read-outs stand apart in the source and are kept apart here.

Columns and labels:
[1] = tested on: P. aeruginosa ATCC 27853; assay: MIC assay, CLSI broth microdilution, P. aeruginosa ATCC 27853 (APAE001); format: cell-based; conditions: Pseudomonas aeruginosa, read-out: MIC APAE001
Protocol: (§1) Minimum inhibitory concentrations (MIC) were determined by reference Clinical and Laboratory Standards Institute (CLSI) broth microdilution methods per M7-A7 [2006]. Quality control ranges utilizing E. coli ATCC 25922, P. aeruginosa ATCC 27853 and S. aureus ATCC 29213, and interpretive criteria for comparator agents were as published in CLSI M100-S17 [2007]. Briefly, serial two-fold dilutions of the test compounds were prepared at 2× concentration in Mueller Hinton Broth. The compound dilutions were mixed in 96-well assay plates in a 1:1 ratio with bacterial inoculum. The inoculum was prepared by suspension of a colony from an agar plate that was prepared the previous day. Bacteria were suspended in sterile saline and added to each assay plate to obtain a final concentration of 5×10^5 CFU/mL. The plates were incubated at 35° C. for 20 hours in ambient air.

[2] = tested on: E. coli ATCC 25922; assay: MIC assay, CLSI broth microdilution, E. coli ATCC 25922 (AECO001); format: cell-based; conditions: for MIC: Escherichia coli, read-out: MIC AECO001; for MIC AECO001: Table 3, E. coli ATCC25922
Protocol: as §1
These MIC assays were conducted following the same protocol as set forth in Example 110. As shown, substituted sisomicin derivatives with groups other than methyl at the 6′-position have improved activity against strains expressing the AAC6′-modifying enzymes.

[3] = APAE001 is ATCC27853, 35° C., 20 hours
[4] = AECO001 is ATCC25922, 35° C., 20 hours

Row | SMILES | MIC ([1]; ATCC27853, 20 h) [µg/mL] | MIC ([2]; ATCC25922, 20 h) [µg/mL] | MIC [1, 3] [µg/mL] | MIC [2, 4] [µg/mL] | MIC AECO001 [2] [µg/mL]
1 | CN[C@@H]1[C@@H](O)[C@@H](O[C@@H]2[C@@H](O)[C@H](O[C@H]3OC(CN)=CC[C@H]3NS(=O)(=O)CCN)[C@@H](N)C[C@H]2NC(=O)[C@@H](O)CCN)OC[C@]1(C)O [Example 93, 2′-(2-Amino-ethyl-sulfonamide)-1-(4-amino-2(S)-hydroxy-butyryl)-sisomicin] | 1 to 16 (≈ 1.52 to 24.4 µM) | < 1 | – | – | –
2 | CN[C@@H]1[C@@H](O)[C@@H](O[C@@H]2[C@@H](O)[C@H](O[C@H]3OC(CNCC4(O)CC(CN)C4)=CC[C@H]3N)[C@@H](N)C[C@H]2NC(=O)[C@@H](O)CCN)OC[C@]1(C)O (stereo partly drawn) [Example 39] | – | – | 1 to 16 (≈ 1.51 to 24.2 µM) | < 1 | –
3 | CN[C@@H]1[C@@H](O)[C@@H](O[C@@H]2[C@@H](O)[C@H](O[C@H]3OC(CNC[C@H]4C[C@H](N)C4)=CC[C@H]3N)[C@@H](N)C[C@H]2NC(=O)C2(O)CCNC2)OC[C@]1(C)O (stereo partly drawn) [Example 78, 6′-(Methyl-trans-3-amino-cyclobutyl)-1-(3-hydroxy-pyrrolidin-3-yl-acetyl)-sisomicin] | 1 to 16 (≈ 1.55 to 24.9 µM) | < 1 | – | – | –
4 | CN[C@@H]1[C@@H](O)[C@@H](O[C@@H]2[C@@H](O)[C@H](O[C@H]3OC(CNCC(O)CO)=CC[C@H]3N)[C@@H](N)C[C@H]2NC(=O)[C@H](O)CN)OC[C@]1(C)O (stereo partly drawn) [Example 10, 6′-(2-Hydroxy-propanol)-1-(3-amino-2(R)-hydroxy-propionyl)-sisomicin] | 1 to 16 (≈ 1.64 to 26.3 µM) | 1 to 16 (≈ 1.64 to 26.3 µM) | – | – | –
5 | CN[C@@H]1[C@@H](O)[C@@H](O[C@@H]2[C@@H](O)[C@H](O[C@H]3OC(CNC[C@H]4C[C@H](N)C4)=CC[C@H]3NC(=N)N)[C@@H](N)C[C@H]2N)OC[C@]1(C)O [Example 107, 6′-(Methyl-trans-3-amino-cyclobutyl)-2′-guanidinium-sisomicin] | < 1 | 1 to 16 (≈ 1.75 to 27.9 µM) | – | – | –
6 | CN[C@@H]1[C@@H](O)[C@@H](O[C@@H]2[C@@H](O)[C@H](O[C@H]3OC(CNCC(O)CO)=CC[C@H]3N)[C@@H](N)C[C@H]2NC(=O)[C@@H](O)CCN)OC[C@]1(C)O (stereo partly drawn) [Example 19, 6′-(2-Hydroxy-propanol)-1-(4-amino-2(S)-hydroxy-butyryl)-sisomicin] | 1 to 16 (≈ 1.61 to 25.7 µM) | < 1 | – | – | –
7 | CN[C@@H]1[C@@H](O)[C@@H](O[C@@H]2[C@@H](O)[C@H](O[C@H]3OC(CNCC(O)CCCN)=CC[C@H]3N)[C@@H](N)C[C@H]2NC(=O)[C@@H](O)CCN)OC[C@]1(C)O (stereo partly drawn) [Example 32, 6′-(2-Hydroxy-5-amino-pentyl)-1-(4-amino-2(S)-hydroxy-butyryl)-sisomicin] | 1 to 16 (≈ 1.54 to 24.6 µM) | < 1 | – | – | –
8 | CN[C@@H]1[C@@H](O)[C@@H](O[C@@H]2[C@@H](O)[C@H](O[C@H]3OC(CNCC4CC4)=CC[C@H]3N)[C@@H](N)C[C@H]2NC(=O)[C@@H](O)CCN)OC[C@]1(C)O [Example 18, 6′-(Methyl-cyclopropyl)-1-(4-amino-2(S)-hydroxy-butyryl)-sisomicin] | – | – | 1 to 16 (≈ 1.66 to 26.5 µM) | < 1 | 1 (≈ 1.66 µM)
9 | CN[C@@H]1[C@@H](O)[C@@H](O[C@@H]2[C@@H](O)[C@H](O[C@H]3OC(CN)=CC[C@H]3NC(=O)C(N)CCCN)[C@@H](N)C[C@H]2NC(=O)[C@@H](O)CCN)OC[C@]1(C)O (stereo partly drawn) [Example 99, 2′-(2,5-Diamino-pentoyl)-1-(4-amino-2(S)-hydroxy-butyryl)-sisomicin] | 1 to 16 (≈ 1.51 to 24.1 µM) | 1 to 16 (≈ 1.51 to 24.1 µM) | – | – | –
10 | CN[C@@H]1C(O)[C@@H](O[C@@H]2[C@@H](O)[C@H](OC3OC(CN)=CC[C@H]3N)[C@@H](N)C[C@H]2NC(=O)[C@@H](O)CN)OC[C@]1(C)O (stereo partly drawn) [Mono-substituted Compound 5, reference compound] | – | – | – | – | 0.5 (≈ 0.935 µM)
11 | CN[C@@H]1[C@@H](O)[C@@H](O[C@@H]2[C@@H](O)[C@H](O[C@H]3OC(CNCC4CCNCC4)=CC[C@H]3N)[C@@H](N)C[C@H]2NC(=O)[C@@H](O)CCN)OC[C@]1(C)O [Example 12, 6′-(Methyl-piperidin-4-yl)-1-(4-amino-2(S)-hydroxy-butyryl)-sisomicin] | – | – | 1 to 16 (≈ 1.55 to 24.8 µM) | 1 to 16 (≈ 1.55 to 24.8 µM) | 1 (≈ 1.55 µM)
12 | CN[C@@H]1[C@@H](O)[C@@H](O[C@@H]2[C@@H](O)[C@H](O[C@H]3OC(CNCCN)=CC[C@H]3N)[C@@H](N)C[C@H]2NC(=O)[C@@H](O)CCN)OC[C@]1(C)O [Example 38, 6′-(2-Amino-ethyl)-1-(4-amino-2(S)-hydroxy-butyryl)-sisomicin] | 1 to 16 (≈ 1.69 to 27 µM) | < 1 | – | – | –
13 | CN[C@@H]1[C@@H](O)[C@@H](O[C@@H]2[C@@H](O)[C@H](O[C@H]3OC(CNCC4CCCN4)=CC[C@H]3N)[C@@H](N)C[C@H]2NC(=O)[C@@H](O)CCN)OC[C@]1(C)O (stereo partly drawn) [Example 49, 6′-(Methyl-pyrrolidin-2-yl)-1-(4-amino-2(S)-hydroxy-butyryl)-sisomicin] | 1 to 16 (≈ 1.58 to 25.3 µM) | < 1 | – | – | –
14 | CN[C@@H]1C(O)[C@@H](O[C@@H]2[C@@H](O)[C@H](OC3OC(CN)=CC[C@H]3N)[C@@H](N)C[C@H]2NC(=O)C2(O)CNC2)OC[C@]1(C)O (stereo partly drawn) [Mono-substituted Compound 7, reference compound] | – | – | – | – | 1 (≈ 1.83 µM)
15 | CN[C@@H]1[C@@H](O)[C@@H](O[C@@H]2[C@@H](O)[C@H](O[C@H]3OC(CNC[C@H](O)CO)=CC[C@H]3N)[C@@H](N)C[C@H]2NC(=O)[C@@H](O)CCN)OC[C@]1(C)O [Example 28, 6′-(2(S)-Hydroxy-propanol)-1-(4-amino-2(S)-hydroxy-butyryl)-sisomicin] | 1 to 16 (≈ 1.61 to 25.7 µM) | 1 to 16 (≈ 1.61 to 25.7 µM) | – | – | –
16 | CN[C@@H]1[C@@H](O)[C@@H](O[C@@H]2[C@@H](O)[C@H](O[C@H]3OC(CN)=CC[C@H]3NC(=O)C(O)CN)[C@@H](N)C[C@H]2NC(=O)[C@@H](O)CCN)OC[C@]1(C)O (stereo partly drawn) [Example 89, 2′-(3-Amino-2-hydroxy-propionyl)-1-(4-amino-2(S)-hydroxy-butyryl)-sisomicin] | 1 to 16 (≈ 1.57 to 25.2 µM) | < 1 | – | – | –
17 | CN[C@@H]1[C@@H](O)[C@@H](O[C@@H]2[C@@H](O)[C@H](O[C@H]3OC(CN)=CC[C@H]3NC[C@H](C)N)[C@@H](N)C[C@H]2NC(=O)[C@@H](O)CCN)OC[C@]1(C)O [Example 95, 2′-(2(S)-Amino-propyl)-1-(4-amino-2(S)-hydroxy-butyryl)-sisomicin] | > 16 | < 1 | – | – | –
18 | CNCC1=CC[C@@H](N)[C@@H](O[C@H]2C(O)[C@@H](O[C@H]3OC[C@](C)(O)[C@H](NC)[C@H]3O)[C@H](N)C[C@@H]2N)O1 (stereo partly drawn) [Mono-substituted Compound 1, reference compound] | – | – | – | – | 1 (≈ 2.17 µM)
19 | CN[C@@H]1C(O)[C@@H](O[C@@H]2[C@@H](O)[C@H](OC3OC(CN)=CC[C@H]3N)[C@@H](N)C[C@H]2NC(=O)[C@@H](O)CCN)OC[C@]1(C)O (stereo partly drawn) [Mono-substituted Compound 6, reference compound] | – | – | – | – | 0.5 (≈ 0.911 µM)
20 | CN[C@@H]1[C@@H](O)[C@@H](O[C@@H]2C(O)[C@H](O[C@H]3OC(CNCCCN)=CC[C@H]3N)[C@@H](N)C[C@H]2N)OC[C@]1(C)O (stereo partly drawn) [Mono-substituted Compound 4, reference compound] | – | – | – | – | 2 (≈ 3.96 µM)
21 | CN[C@@H]1[C@@H](O)[C@@H](O[C@@H]2C(O)[C@H](O[C@H]3OC(CNCC4CC4)=CC[C@H]3N)[C@@H](N)C[C@H]2N)OC[C@]1(C)O (stereo partly drawn) [Mono-substituted Compound 2, reference compound] | – | – | – | – | 1 (≈ 1.99 µM)
22 | CN[C@@H]1[C@@H](O)[C@@H](O[C@@H]2C(O)[C@H](O[C@H]3OC(CNCC4CCNCC4)=CC[C@H]3N)[C@@H](N)C[C@H]2N)OC[C@]1(C)O (stereo partly drawn) [Mono-substituted Compound 3, reference compound] | – | – | – | – | 0.5 (≈ 0.918 µM)
